Laboratory results as given in patent US12558342B2, “2-[2-({12,12-dimethyl-4-oxo-6-phenyl-3,11-dioxatricyclo[8.4.0.0,2,7]tetradeca-1,5,7,9-tetraen-8-yl}oxy)acetamido]benzamide and derivatives as inhibitor of clock:bmal1 interaction for the treatment of circadian rhythm diseases and disorders” (KOC UNIVERSITESI, priority 2019, dated 2026).
Residue numbers refer to the chain shown, from its start.

Columns and labels:
CLOCK = target: T1, CLOCK (Homo sapiens, UniProt O15516); test: Pull-down assay with biotinylated CLK8, U2OS lysate with endogenous CLOCK; assay type: binding; set-up: expressed in transfected cells; host or cells: HEK293T
T1 sequence (O15516 1-846): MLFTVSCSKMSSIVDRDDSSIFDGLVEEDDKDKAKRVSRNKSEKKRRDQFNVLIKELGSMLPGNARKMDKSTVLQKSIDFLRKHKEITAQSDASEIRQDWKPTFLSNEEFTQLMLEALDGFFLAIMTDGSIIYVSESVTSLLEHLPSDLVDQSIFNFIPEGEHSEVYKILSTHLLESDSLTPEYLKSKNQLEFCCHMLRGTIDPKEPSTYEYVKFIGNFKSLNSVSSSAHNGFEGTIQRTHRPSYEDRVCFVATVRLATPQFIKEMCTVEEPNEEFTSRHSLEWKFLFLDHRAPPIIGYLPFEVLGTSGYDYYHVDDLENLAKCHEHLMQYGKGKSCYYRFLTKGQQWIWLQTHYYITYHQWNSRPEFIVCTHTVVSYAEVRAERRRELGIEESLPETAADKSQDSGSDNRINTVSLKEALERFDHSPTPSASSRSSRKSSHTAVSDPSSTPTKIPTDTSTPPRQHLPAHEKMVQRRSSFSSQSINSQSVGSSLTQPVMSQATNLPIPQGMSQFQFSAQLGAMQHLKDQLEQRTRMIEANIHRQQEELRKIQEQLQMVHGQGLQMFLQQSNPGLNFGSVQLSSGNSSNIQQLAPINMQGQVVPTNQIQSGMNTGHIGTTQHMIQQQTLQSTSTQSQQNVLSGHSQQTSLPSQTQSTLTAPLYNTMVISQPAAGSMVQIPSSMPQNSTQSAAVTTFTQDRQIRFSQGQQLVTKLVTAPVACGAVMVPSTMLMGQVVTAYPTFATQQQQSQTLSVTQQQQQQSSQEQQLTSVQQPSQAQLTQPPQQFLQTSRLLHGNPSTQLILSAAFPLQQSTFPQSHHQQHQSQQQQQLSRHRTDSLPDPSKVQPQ

U2OS cells = test: MTT-based cell cytotoxicity test; set-up: species or system human
Description: The toxicity of the compounds was assessed by MTT-based assay using immortalized human osteosarcoma (U2OS) cells treated with different compounds at different concentrations. Cell viability was measured with MTT-based cell cytotoxicity test. U2OS cells were seeded on 96-well plate with 4×10^3 cell/well density. Two days later, the cells were treated with an appropriate amount of different small molecules. Control cells were treated with 0.5% vehicle (DMSO). After 48 hours, the media was replaced with a 20% solution of 5 mg/ml MTT in DMEM. After 4 hours of incubation, the media was discarded and a 1:1 solution of ethanol and DMSO was used to dissolve the formazan crystals. Cell viability was measured as stated in Sigma-Aldrich product information.
Compounds with a relative cell viability of less than 80% at 1.25 μM were eliminated. The final concentration of a non-toxic compounds for in vitro experiments was set to the maximum concentration at which it had at least 80% relative cell viability. Ultimately, 72 compounds were statistically identified as non-toxic and used for the next characterization step.

CLOCK-F80A-K220A = target: T2, CLOCK-F80A-K220A (Homo sapiens, UniProt O15516, F80A/K220A); test: Pull-down assay with biotinylated CLK8, HEK 293T cells overexpressing CLOCK-F80A-K220A and BMAL1; assay type: binding
T2 construct: expressed in transfected cells; host or cells: HEK 293T
T2 sequence (O15516 1-846 F80A/K220A): T1 sequence (O15516 1-846) with F80A, K220A
Description: HEK293T cells were transiently transfected with tag-free hsClock and mBmal1. After 48 hours of transfection, cells were harvested and whole cell lysate was prepared with ice-cold lysis buffer (50 mM Tris-HCl pH 7.4, 2 mM EDTA, 1 mM MgCl2, 0.2% NP-40, 1 mM sodium orthovanadate, 1 mM sodium fluoride and protease inhibitor cocktail) followed by centrifugation at 7000×g at 4° C. for 10 minutes. Lysate was diluted with ice-cold 2× binding buffer (100 mM Tris-HCl pH 7.4, 300 mM NaCl, 0.2% NP-40, 2 mM sodium orthovanadate, 2 mM sodium fluoride, and protease inhibitor cocktail) 27. The lysate was divided into three fractions to be treated with either DMSO, or 20 μM of bitoinylated-CLK8 (bait) with or without 200 μM CLK8 (competitor). The lysate-compound samples were incubated and mixed continuously at 4° C. for 1 hour. After equilibrating NeutroAvidin Agarose resin (Thermo Scientific) with lysis buffer, the lysate-compound mixture and NeutroAvidin Agarose resin were incubated and mixed continuously at 4° C. overnight. The beads were washed four times with 1× binding buffer. To elute the bound proteins Laemmli buffer was added and samples were heated at 95° C. for 7 minutes. The pull-down precipitates were subjected to SDS-PAGE and transferred to a PVDF membrane (Millipore). […]

## CC1(C)CCc2c(cc(OCC(=O)Nc3ccccc3C(N)=O)c3c(-c4ccccc4)cc(=O)oc23)O1 [CLK8, 2-[2-({12,12-dimethyl-4-oxo-6-phenyl-3,11-dioxatricyclo [8.4.0.0,2,7]tetradeca-1,5,7,9-tetraen-8-yl}oxy)acetamido] benzamide]
CLOCK; endogenous CLOCK, input vs precipitated sample
  affinity for CLOCK: high affinity for CLOCK
CLOCK; except BMAL1, including NPAS2
  other core clock components as target: none of the other core clock components were detected as a target
U2OS cells
  toxicity to the U2OS cell line: not toxic
CLOCK-F80A-K220A
  precipitated mutant CLOCK in the presence of the competitor: did not disappear
